Where two headings read alike, the source gives them in different places.
What was measured:
[1] = molecular target: T1, Recombinant His-tagged NAMPT (Homo sapiens, UniProt P43490); assay: Biochemical inhibition assay: NAMPT enzymatic reaction, NMN quantified by mass spectrometry; details: 33 nM NAMPT, 1 μM NAM, 100 μM PRPP, 30 minutes at room temperature, read-out: Biochem IC50
T1 construct: His; host or cells: E. coli
Method in brief: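 Reaction 30 min at room temperature with 1 μM NAM, 100 μM PRPP, 2.5 mM ATP (final), quenched with formic acid. NMN quantified by RapidFire electrospray MS, normalized to L-cystathionine; IC50 from percent inhibition versus DMSO.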

[2] = test system: A2780 cells; assay: In-vitro cell proliferation assay (SRB, 72 hours); assay type: cell-based; details: sulforhodamine B (SRB) assay
Method in brief: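 Viable cells measured by TCA fixation and SRB staining, absorbance 570 nm; % inhibition vs DMSO control after media-only background subtraction, interpolated between two bracketing concentrations.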

T1 sequence (P43490 whole entry): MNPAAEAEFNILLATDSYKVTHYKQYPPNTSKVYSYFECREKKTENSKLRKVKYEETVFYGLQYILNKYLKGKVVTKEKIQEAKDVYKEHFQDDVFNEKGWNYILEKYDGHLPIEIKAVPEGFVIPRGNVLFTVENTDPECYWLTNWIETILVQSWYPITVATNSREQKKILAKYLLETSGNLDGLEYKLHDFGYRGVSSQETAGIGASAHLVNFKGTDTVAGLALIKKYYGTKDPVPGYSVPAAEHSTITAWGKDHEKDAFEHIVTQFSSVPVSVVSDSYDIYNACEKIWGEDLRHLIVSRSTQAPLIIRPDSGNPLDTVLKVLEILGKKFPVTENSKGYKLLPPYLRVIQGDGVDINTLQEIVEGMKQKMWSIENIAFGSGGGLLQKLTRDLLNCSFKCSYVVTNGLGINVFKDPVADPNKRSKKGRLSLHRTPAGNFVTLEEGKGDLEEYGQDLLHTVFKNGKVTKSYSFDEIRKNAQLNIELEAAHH

SMILES | IC50 ([1]; 2.5 mM ATP) | IC50 ([2]; Homo sapiens) | IC50 ([1]; […] ATP) | IC50 [2]
O=C(NCCCCC1CCN(C(=O)c2cc(Cl)ccc2Cl)CC1)c1cc2cnccc2[nH]1 [N-(4-{1-[(2,5-dichlorophenyl)carbonyl]piperidin-4-yl}butyl)-1H-pyrrolo[3,2-c]pyridine-2-carboxamide] | 0.0513 µM | 0.0061 µM | – | –
O=C(NCCCCC1CCN(C(=O)c2ccoc2)CC1)c1cc2cnccc2[nH]1 [N-(4-{1-[(furan-3-yl)carbonyl]piperidin-4-yl}butyl)-1H-pyrrolo[3,2-c]pyridine-2-carboxamide] | 0.0091 µM | 0.0101 µM | – | –
COc1ccc(C(=O)N2CCC(CCCCNC(=O)c3cc4cnccc4[nH]3)CC2)c(OC)c1 [N-(4-{1-[(2,4-dimethoxyphenyl)carbonyl]piperidin-4-yl}butyl)-1H-pyrrolo[3,2-c]pyridine-2-carboxamide] | 0.0671 µM | 0.0033 µM | – | –
COc1ncc(Cl)cc1C(=O)N1CCC(CCCCNC(=O)c2cc3cnccc3[nH]2)CC1 [N-(4-{1-[(5-chloro-2-methoxypyridin-3-yl)carbonyl]piperidin-4-yl}butyl)-1H-pyrrolo[3,2-c]pyridine-2-carboxamide] | 0.0303 µM | 0.0033 µM | – | –
O=C(NCCCCC1CCN(C(=O)c2ccc(F)cc2F)CC1)c1ccc2nccn2c1 [N-(4-{1-[(2,4-difluorophenyl)carbonyl]piperidin-4-yl}butyl)imidazo[1,2-a]pyridine-6-carboxamide] | 0.0071 µM | 0.0256 µM | – | –
O=C(NCCCCC1CCN(C(=O)c2cc(Cl)cc(Cl)c2)CC1)c1cc2ccncc2s1 [N-(4-{1-[(3,5-dichlorophenyl)carbonyl]piperidin-4-yl}butyl)thieno[2,3-c]pyridine-2-carboxamide] | 0.03 µM | 0.0513 µM | – | –
CCOc1cccc(C(=O)N2CCC(CCCCNC(=O)c3ccc4nccn4c3)CC2)c1 [N-(4-{1-[(3-ethoxyphenyl)carbonyl]piperidin-4-yl}butyl)imidazo[1,2-a]pyridine-6-carboxamide] | 0.0102 µM | 0.0132 µM | – | –
Cc1cnc(C(=O)N2CCC(CCCCNC(=O)c3cc4cnccc4[nH]3)CC2)cn1 [N-(4-{1-[(5-methylpyrazin-2-yl)carbonyl]piperidin-4-yl}butyl)-1H-pyrrolo[3,2-c]pyridine-2-carboxamide] | 0.115 µM | 0.0238 µM | – | –
O=C(NCCCCC1CCN(S(=O)(=O)c2ccccc2OC(F)(F)F)CC1)c1cc2cnccc2[nH]1 [N-[4-(1-{[2-(trifluoromethoxy)benzene]sulfonyl}piperidin-4-yl)butyl]-1H-pyrrolo[3,2-c]pyridine-2-carboxamide] | – | – | 0.0226 µM | 0.0033 µM
O=C(NCCCCC1CCN(C(=O)c2csc(C(F)(F)F)n2)CC1)c1ccc2nccn2c1 [N-[4-(1-{[2-(trifluoromethyl)-1,3-thiazol-4-yl]carbonyl}piperidin-4-yl)butyl]imidazo[1,2-a]pyridine-6-carboxamide] | 0.0743 µM | 0.074 µM | – | –
O=C(NCCCCC1CCN(C(=O)c2ccc(Cl)cc2)CC1)c1cc2cnccc2[nH]1 [N-(4-{1-[(4-chlorophenyl)carbonyl]piperidin-4-yl}butyl)-1H-pyrrolo[3,2-c]pyridine-2-carboxamide] | 0.114 µM | 0.0657 µM | – | –
O=C(NCCCCC1CCN(C(=O)c2ccc(C(F)(F)F)cc2)CC1)c1ccc2nccn2c1 [N-[4-(1-{[4-(trifluoromethyl)phenyl]carbonyl}piperidin-4-yl)butyl]imidazo[1,2-a]pyridine-6-carboxamide] | 0.152 µM | 0.1 to 1 µM | – | –
Cc1c(F)cccc1C(=O)N1CCC(CCCCNC(=O)c2cc3ccncc3s2)CC1 [N-(4-{1-[(3-fluoro-2-methylphenyl)carbonyl]piperidin-4-yl}butyl)thieno[2,3-c]pyridine-2-carboxamide] | 0.0068 µM | 0.0032 µM | – | –
O=C(NCCCCC1CCN(C(=O)c2cnccc2C(F)(F)F)CC1)c1ccc2nccn2c1 [N-[4-(1-{[4-(trifluoromethyl)pyridin-3-yl]carbonyl}piperidin-4-yl)butyl]imidazo[1,2-a]pyridine-6-carboxamide] | 0.0156 µM | 0.0038 µM | – | –
O=C(NCCCCC1CCN(C(=O)c2ccccn2)CC1)c1ccc2nccn2c1 [N-(4-{1-[(pyridin-2-yl)carbonyl]piperidin-4-yl}butyl)imidazo[1,2-a]pyridine-6-carboxamide] | 0.0364 µM | 0.0135 µM | – | –
COc1ncc(Cl)cc1C(=O)N1CCC(CCCCNC(=O)c2cc3ccncc3s2)CC1 [N-(4-{1-[(5-chloro-2-methoxypyridin-3-yl)carbonyl]piperidin-4-yl}butyl)thieno[2,3-c]pyridine-2-carboxamide] | 0.017 µM | 0.0071 µM | – | –
O=C(NCCCCC1CCN(C(=O)c2ccoc2)CC1)c1ccc2nccn2c1 [N-(4-{1-[(furan-3-yl)carbonyl]piperidin-4-yl}butyl)imidazo[1,2-a]pyridine-6-carboxamide] | 0.0062 µM | 0.0256 µM | – | –

SMILES | IC50 ([1]; 2.5 mM ATP) | IC50 ([2]; Homo sapiens) | IC50 ([1]; […] ATP) | IC50 [2]
Cc1nc(C(=O)N2CCC(CCCCNC(=O)c3ccc4nccn4c3)CC2)cs1 [N-(4-{1-[(2-methyl-1,3-thiazol-4-yl)carbonyl]piperidin-4-yl}butyl)imidazo[1,2-a]pyridine-6-carboxamide] | 0.0314 µM | 0.0611 µM | – | –
COc1ccc(C(=O)N2CCC(CCCCNC(=O)c3cc4cnccc4[nH]3)CC2)cc1 [N-(4-{1-[(4-methoxyphenyl)carbonyl]piperidin-4-yl}butyl)-1H-pyrrolo[3,2-c]pyridine-2-carboxamide] | 0.0797 µM | 0.0163 µM | – | –
O=C(NCCCCC1CCN(C(=O)c2ccc3[nH]ccc3c2)CC1)c1ccc2nccn2c1 [N-(4-{1-[(1H-indol-5-yl)carbonyl]piperidin-4-yl}butyl)imidazo[1,2-a]pyridine-6-carboxamide] | 0.0195 µM | 0.0185 µM | – | –
O=C(NCCCCC1CCN(C(=O)c2cccc(F)c2)CC1)c1cc2cnccc2[nH]1 [N-(4-{1-[(3-fluorophenyl)carbonyl]piperidin-4-yl}butyl)-1H-pyrrolo[3,2-c]pyridine-2-carboxamide] | 0.0164 µM | 0.0033 µM | – | –
CC(C)c1ccc(C(=O)N2CCC(CCCCNC(=O)c3cc4cnccc4[nH]3)CC2)cn1 [N-[4-(1-{[6-(propan-2-yl)pyridin-3-yl]carbonyl}piperidin-4-yl)butyl]-1H-pyrrolo[3,2-c]pyridine-2-carboxamide] | 0.0867 µM | 0.0132 µM | – | –
O=C(NCCCCC1CCN(C(=O)c2ccc(C(F)(F)F)nc2)CC1)c1cc2cnccc2[nH]1 [N-[4-(1-{[6-(trifluoromethyl)pyridin-3-yl]carbonyl}piperidin-4-yl)butyl]-1H-pyrrolo[3,2-c]pyridine-2-carboxamide] | 0.278 µM | 0.0476 µM | – | –
COc1ccc(OC)c(S(=O)(=O)N2CCC(CCCCNC(=O)c3cc4cnccc4[nH]3)CC2)c1 [N-(4-{1-[(2,5-dimethoxybenzene)sulfonyl]piperidin-4-yl}butyl)-1H-pyrrolo[3,2-c]pyridine-2-carboxamide] | – | – | 0.0284 µM | 0.0018 µM
O=C(NCCCCC1CCN(C(=O)c2ccc(F)cc2)CC1)c1ccc2nccn2c1 [N-(4-{1-[(4-fluorophenyl)carbonyl]piperidin-4-yl}butyl)imidazo[1,2-a]pyridine-6-carboxamide] | 0.012 µM | 0.0262 µM | – | –
COc1ccc(C(=O)N2CCC(CCCCNC(=O)c3cc4ccncc4s3)CC2)cc1OC [N-(4-{1-[(3,4-dimethoxyphenyl)carbonyl]piperidin-4-yl}butyl)thieno[2,3-c]pyridine-2-carboxamide] | 0.0326 µM | 0.0069 µM | – | –
O=C(NCCCCC1CCN(C(=O)c2ccc(Cl)c(Cl)c2)CC1)c1ccc2nccn2c1 [N-(4-{1-[(3,4-dichlorophenyl)carbonyl]piperidin-4-yl}butyl)imidazo[1,2-a]pyridine-6-carboxamide] | 0.049 µM | 0.1 to 1 µM | – | –
Cc1ccc(C(=O)N2CCC(CCCCNC(=O)c3ccc4nccn4c3)CC2)cn1 [N-(4-{1-[(6-methylpyridin-3-yl)carbonyl]piperidin-4-yl}butyl)imidazo[1,2-a]pyridine-6-carboxamide] | 0.0238 µM | 0.0736 µM | – | –
O=C(NCCCCC1CCN(C(=O)c2ccc3ncsc3c2)CC1)c1cc2cnccc2[nH]1 [N-(4-{1-[(1,3-benzothiazol-6-yl)carbonyl]piperidin-4-yl}butyl)-1H-pyrrolo[3,2-c]pyridine-2-carboxamide] | 0.0727 µM | 0.0126 µM | – | –
COc1ccc(C(=O)N2CCC(CCCCNC(=O)c3ccc4nccn4c3)CC2)cc1OC [N-(4-{1-[(3,4-dimethoxyphenyl)carbonyl]piperidin-4-yl}butyl)imidazo[1,2-a]pyridine-6-carboxamide] | 0.0385 µM | 0.0029 µM | – | –
O=C(NCCCCC1CCN(C(=O)c2ccccc2OC(F)(F)F)CC1)c1cc2cnccc2[nH]1 [N-[4-(1-{[2-(trifluoromethoxy)phenyl]carbonyl}piperidin-4-yl)butyl]-1H-pyrrolo[3,2-c]pyridine-2-carboxamide] | 0.0205 µM | 0.0013 µM | – | –
COc1cc(Cl)ccc1C(=O)N1CCC(CCCCNC(=O)c2cc3ccncc3s2)CC1 [N-(4-{1-[(4-chloro-2-methoxyphenyl)carbonyl]piperidin-4-yl}butyl)thieno[2,3-c]pyridine-2-carboxamide] | 0.0155 µM | 0.013 µM | – | –
O=C(NCCCCC1CCN(C(=O)c2cc(Cl)ccc2Cl)CC1)c1ccc2nccn2c1 [N-(4-{1-[(2,5-dichlorophenyl)carbonyl]piperidin-4-yl}butyl)imidazo[1,2-a]pyridine-6-carboxamide] | 0.0102 µM | 0.0055 µM | – | –
CCOc1ncccc1C(=O)N1CCC(CCCCNC(=O)c2ccc3nccn3c2)CC1 [N-(4-{1-[(2-ethoxypyridin-3-yl)carbonyl]piperidin-4-yl}butyl)imidazo[1,2-a]pyridine-6-carboxamide] | 0.0092 µM | 0.0005 µM | – | –
